Results from patent publication US20260159527A1, “MACROCYCLIC BCL6 DEGRADERS” (DANA-FARBER CANCER INSTITUTE, INC., priority 2022, published 2026).

target: T1, BCL6 (Homo sapiens, UniProt P41182); test: HiBiT cellular degradation assay (Promega) in Su-DHL-4 cells; format: cell-based; conditions: concentration to reach 50% degradation; endogenous BCL6 tagged with SmBiT in Su-DHL-4 cells; 24 hr of compound treatment; relative to DMSO control
T1 construct: Endogenous BCL6 was tagged with the 11-amino acid SmBiT through CRISPR/Cas9 gene editing; endogenous in cells; host or cells: Su-DHL-4 cells, CRISPR/Cas9 knock-in single cell clone
Protocol: DC50 (concentration to reach 50% degradation) values were determined from a cellular degradation assay (HiBiT, Promega™) in Su-DHL-4 cells (Table 1). Endogenous BCL6 was tagged with the 11-amino acid SmBiT through CRISPR/Cas9 gene editing and single cell clone selection. After 24 hr of compound treatment, cells were lysed and incubated with LgBiT protein to reconstitute intact nanoluciferase. Substrate was then added and relative luciferase units were measured. Degradation levels for each treatment were taken as a percentage compared to the control, 100% DMSO (Prism).

DC50 [nM] | Structure (SMILES)
2.4 | C[C@H]1C[C@@H]2CN(C1)c1ncc(Cl)c(n1)Nc1cc(c3c(c1)n(CCC(C)(C)O)c(=O)n3C)OCCN2 [Compound 16, (1^3R, 1^5S)-2^5-Chloro-4^1-(3-hydroxy-3-methylbutyl)-1^5,4^3-dimethyl-4^2,4^3-dihydro-41 H-5-oxa-3,8-diaza-4(6,4)-benzo[d]imidazola-2(2,4)-pyrimidina-1 (1,3)-piperidinacyclooctaphan-4^2-one]
33 | C[C@@H]1C[C@H]2CN(C1)c1ncc(Cl)c(n1)Nc1cc(c3c(c1)n(CCC(C)(C)O)c(=O)n3C)OCCN2 [Compound 17, (1^3S,1^5R)-2^5-Chloro-4^1-(3-hydroxy-3-methylbutyl)-1^5,4^3-dimethyl-4^2,4^3-dihydro-41 H-5-oxa-3,8-diaza-4(6,4)-benzo[d]imidazola-2(2,4)-pyrimidina-1 (1,3)-piperidinacyclooctaphan-4^2-one]
31 | C[C@@H]1CN2C[C@H](CCCOc3cc(cc4c3n(C)c(=O)c(=O)n4C[C@H]3C[C@H](O)C3)Nc3nc2ncc3Cl)C1(F)F [Compound 18-1, (1^3S,1^5R)-2^5-Chloro-1^4,1^4-difluoro-4^1-(((1r,3S)-3-hydroxycyclobutyl)methyl)-1^5,4^4-dimethyl-4^1,4^2,4^3,4^4-tetrahydro-5-oxa-3-aza-4(7,5)-quinoxalina-2(2,4)-pyrimidina-1 (1,3)-piperidinacyclooctaphane-4^2,4^3-dione]
4.4 | C[C@@H]1CN2C[C@H](CCCOc3cc(cc4c3n(C)c(=O)c(=O)n4C[C@H]3C[C@@H](O)C3)Nc3nc2ncc3Cl)C1(F)F [Compound 18-2]
> 400 | C[C@H]1CN2C[C@@H](CCCOc3cc(cc4c3n(C)c(=O)c(=O)n4C[C@H]3C[C@H](O)C3)Nc3nc2ncc3Cl)C1(F)F [Compound 19-1, (1^3R, 1^5S)-2^5-Chloro-1^4, 1^4-difluoro-4^1-(((1r, 3R)-3-hydroxycyclobutyl)methyl)-1^5, 4^4-dimethyl-4^1,4^2,4^3,4^4-tetrahydro-5-oxa-3-aza-4(7,5)-quinoxalina-2(2,4)-pyrimidina-1 (1,3)-piperidinacyclooctaphane-4^2,4^3-dione]
> 400 | C[C@H]1CN2C[C@@H](CCCOc3cc(cc4c3n(C)c(=O)c(=O)n4C[C@H]3C[C@@H](O)C3)Nc3nc2ncc3Cl)C1(F)F [Compound 19-2, (1^3R, 1^5S)-2^5-chloro-1^4,1^4-difluoro-4^1-(((1s,3S)-3-hydroxycyclobutyl)methyl)-1^2,4^4-dimethyl-4^2,4^2,4^3,4^4-tetrahydro-5-oxa-3-aza-4(7,5)-quinoxalina-2(2,4)-pyrimidina-1 (1,3)-piperidinacyclooctaphane-4^2,4^3-dione]
22 | C[C@@H]1CN2C[C@H](CCCOc3cc(cc4[nH]c(=O)c(=O)n(C)c34)Nc3nc2ncc3Cl)C1(F)F [Compound 28, (1^3S,1^3R)-2^5-Chloro-1^4,1^4-difluoro-1^5,4^4-dimethyl-41, 42, 43,44-tetrahydro-5-oxa-3-aza-4(7,5)-quinoxalina-2(2,4)-pyrimidina-1 (1,3)-piperidinacyclooctaphane-4^2,4^3-dione]
76 | C[C@@H]1CN2C[C@H](CCCOc3cc(cc4c3n(C)c(=O)n4C)Nc3nc2ncc3Cl)C1(F)F [Compound 29, (1^3S,1^5R)-2^5-chloro-1^4,1^4-difluoro-1^5,4^14^3-trimethyl-4^2,4^3-dihydro-4^1H-5-oxa-3-aza-4(6,4)-benzo[d]imidazola-2(2,4)-pyrimidina-1 (1,3)-piperidinacyclooctaphan-4^2-one]
> 400 | C[C@H]1CN2C[C@@H](CCCOc3cc(cc4c3n(C)c(=O)n4C)Nc3nc2ncc3Cl)C1(F)F [Compound 30, (1^3R155)-2^5-chloro-1^4,1^4-difluoro-1^5,4^14^3-trimethyl-4^2,4^3-dihydro-4^1H-5-oxa-3-aza-4(6,4)-benzo[d]imidazola-2(2,4)-pyrimidina-1 (1,3)-piperidinacyclooctaphan-4^2-one]
7.5 | C[C@@H]1CN2C[C@H](NCCOc3cc(cc4[nH]c(=O)n(C)c34)Nc3nc2ncc3Cl)C1(F)F [Compound 31, (1^3S,1^5R)-2^5-chloro-1^4,1^4-difluoro-1^5,4^3-dimethyl-4^2,4^3-dihydro-4^1H-5-oxa-3,8-diaza-4(6,4)-benzo[d]imidazola-2(2,4)-pyrimidina-1 (1,3)-piperidinacyclooctaphan-4^2-one]
> 400 | C[C@H]1CN2C[C@@H](NCCOc3cc(cc4[nH]c(=O)n(C)c34)Nc3nc2ncc3Cl)C1(F)F [Compound 32, (1^3R, 1^5S)-2^5-chloro-1^4,1^4-difluoro-1^5,4^3-dimethyl-4^2,4^3-dihydro-4^1H-5-oxa-3,8-diaza-4(6,4)-benzo[d]imidazola-2(2,4)-pyrimidina-1 (1,3)-piperidinacyclooctaphan-4^2-one]
1.9 | C[C@@H]1CN2C[C@H](OCCOc3cc(cc4c3n(C)c(=O)n4CCC(C)(C)O)Nc3nc2ncc3Cl)C1(F)F [Compound 33, (1^3S,1^5R)-2^5-Chloro-1^4, 1^4-difluoro-4^1-(3-hydroxy-3-methylbutyl)-1^5,4^3-dimethyl-4^2,4^3-dihydro-4^1H-5,8-dioxa-3-aza-4(6,4)-benzo[d]imidazola-2(2,4)-pyrimidina-1 (1,3)-piperidinacyclooctaphan-4^2-one]
> 400 | C[C@H]1CN2C[C@@H](OCCOc3cc(cc4c3n(C)c(=O)n4CCC(C)(C)O)Nc3nc2ncc3Cl)C1(F)F [Compound 34, (1^3R, 1^5S)-2^5-Chloro-1^4,1^4-difluoro-4^1-(3-hydroxy-3-methylbutyl)-1^5,4^3-dimethyl-4^2,4^3-dihydro-4 H-5,8-dioxa-3-aza-4(6,4)-benzo[d]imidazola-2(2,4)-pyrimidina-1 (1,3)-piperidinacyclooctaphan-4^2-one]
> 400 | C[C@H]1CN2C[C@@H](NCCOc3cc(cc4c3n(C)c(=O)n4CCC(C)(C)O)Nc3nc2ncc3Cl)C1(F)F [Compound 35, (1^3R, 1^5S)-1^4,1^4,2^5-Trifluoro-4^1-(3-hydroxy-3-methylbutyl)-1^5,4^3-dimethyl-4^2,4^3-dihydro-4^1H-5-oxa-3,8-diaza-4(6,4)-benzo[d]imidazola-2(2,4)-pyrimidina-1 (1,3)-piperidinacyclooctaphan-4^2-one]
> 400 | C[C@H]1CN2C[C@@H](NCCOc3cc(cc4[nH]c(=O)n(C)c34)Nc3nc2ncc3F)C1(F)F [Compound 37]
14.2 | C[C@@H]1CN2C[C@H](NCCOc3cc(cc4[nH]c(=O)n(C)c34)Nc3nc2ncc3F)C1(F)F [Compound 38]
96.7 | C[C@@H]1CN2C[C@H](NCCOc3cc(cc4c3n(C)c(=O)n4CCC(C)(C)O)Nc3ccnc2n3)C1(F)F [Compound 39]
3.7 | C[C@@H]1CN2C[C@H](NCCOc3cc(cc4c3n(C)c(=O)n4CCC(C)(O)CO)Nc3nc2ncc3Cl)C1(F)F (stereo partly drawn) [Compound 40]
1 | C[C@@H]1CN2C[C@H](NCCOc3cc(cc4c3n(C)c(=O)n4C[C@@H](O)C(C)(C)O)Nc3nc2ncc3Cl)C1(F)F [Compound 41]
8.5 | C[C@@H]1CN2C[C@H](NCCOc3cc(cc4c3n(C)c(=O)n4C[C@H](O)C(C)(C)O)Nc3nc2ncc3Cl)C1(F)F [Compound 42]
11.3 | C[C@@H]1CN2C[C@H](NCCOc3cc(cc4c3n(C)c(=O)n4CC[S@](C)(=N)=O)Nc3nc2ncc3Cl)C1(F)F [Compound 43]
18.9 | C[C@@H]1CN2C[C@H](NCCOc3cc(cc4c3n(C)c(=O)n4CC[S@@](C)(=N)=O)Nc3nc2ncc3Cl)C1(F)F [Compound 44]
8.7 | C[C@@H]1CN2C[C@H](NCCOc3cc(cc4c3n(C)c(=O)n4CCC3(O)COC3)Nc3nc2ncc3Cl)C1(F)F [Compound 45]
> 400 | CNC(=O)COc1cc2cc3ccc2n(c1=O)CCCCO[C@H]1C[C@@H](C)CN(C1)c1ncc(Cl)c(n1)N3 [Compound A, reference compound]
> 400 | CNC(=O)COc1cc2cc3ccc2n(c1=O)CCCCO[C@@H]1C[C@H](C)CN(C1)c1ncc(Cl)c(n1)N3 [Compound B, reference compound]

test system: not given; test: not given; conditions: from CC1CN(c2ncc(F)c(Nc3cc(OCC(=O)O)c4c(c3)[nH]c(=O)n4C)n2)CC(N)C1(F)F; amide bond; 14-membered ring; HATU/DIEA; DMF; 148.0 mM; 15.0 °C; 2.0 h

Structure (SMILES) | ring closure, isolated yield [%]
CC1CN2CC(NC(=O)COc3cc(cc4[nH]c(=O)n(C)c34)Nc3nc2ncc3F)C1(F)F (stereo not drawn) | 74

same assay, conditions: from C[C@@H]1CNC[C@H](OCCOc2cc(Nc3nc(Cl)ncc3Cl)cc3[nH]c(=O)n(C)c23)C1; snar bond; 14-membered ring; DIEA; DMSO; 18.4 mM; 80.0 °C; 12.0 h

Structure (SMILES) | ring closure, isolated yield [%]
C[C@H]1C[C@@H]2CN(C1)c1ncc(Cl)c(n1)Nc1cc(c3c(c1)[nH]c(=O)n3C)OCCO2 | 13

same assay, conditions: from C[C@@H]1C[C@H](N)CN(c2ncc(Cl)c(Nc3cc(OCCCl)c4c(c3)[nH]c(=O)n4C)n2)C1; amine bond; 14-membered ring; K2CO3/NaI; DMF; 11.5 mM; 100.0 °C; 36.0 h

Structure (SMILES) | ring closure, isolated yield [%]
C[C@@H]1C[C@H]2CN(C1)c1ncc(Cl)c(n1)Nc1cc(c3c(c1)[nH]c(=O)n3C)OCCN2 | 42

same assay, conditions: from C[C@H]1CNC[C@@H](OCCOc2cc(Nc3nc(Cl)ncc3Cl)cc3[nH]c(=O)n(C)c23)C1(F)F; snar bond; 14-membered ring; DIEA; DMSO; 49.7 mM; 80.0 °C; 24.0 h

Structure (SMILES) | ring closure, isolated yield [%]
C[C@H]1CN2C[C@@H](OCCOc3cc(cc4[nH]c(=O)n(C)c34)Nc3nc2ncc3Cl)C1(F)F | 30

same assay, conditions: from C[C@H]1CNC[C@@H](OCCOc2cc(Nc3nc(Cl)ncc3Cl)cc3[nH]c(=O)n(C)c23)C1; snar bond; 14-membered ring; DIEA; DMSO; 38.3 mM; 80.0 °C; 12.0 h

Structure (SMILES) | ring closure, isolated yield [%]
C[C@@H]1C[C@H]2CN(C1)c1ncc(Cl)c(n1)Nc1cc(c3c(c1)[nH]c(=O)n3C)OCCO2 | 12
